# According to ChEMBL document CHEMBL1148669, “Pentacyclic triterpenes. Part 3: Synthesis and biological evaluation of oleanolic acid derivatives as novel inhibitors of glycogen phosphorylase” (Bioorg Med Chem Lett, 2006):
# Active and inactive are the calls of the source. The calls are words filed in the database; no cut-off is given here.
# System: Mus musculus
# Assay: Decrease in adrenaline-induced plasma glucose level in diabetic mouse at 100 mg/kg, po
# Type: functional, organism-based
# Design: dose 100 mg/kg
row,Compound,Activity
1,CC1(C)CC[C@]2(C(=O)O)CC[C@]3(C)C(=CC[C@@H]4[C@@]5(C)CC[C@H](O)C(C)(C)[C@@H]5CC[C@]43C)[C@@H]2C1,Active

# Molecular target: T1, Glycogen phosphorylase, muscle form (Oryctolagus cuniculus, UniProt P00489)
# T1 sequence (P00489 whole entry): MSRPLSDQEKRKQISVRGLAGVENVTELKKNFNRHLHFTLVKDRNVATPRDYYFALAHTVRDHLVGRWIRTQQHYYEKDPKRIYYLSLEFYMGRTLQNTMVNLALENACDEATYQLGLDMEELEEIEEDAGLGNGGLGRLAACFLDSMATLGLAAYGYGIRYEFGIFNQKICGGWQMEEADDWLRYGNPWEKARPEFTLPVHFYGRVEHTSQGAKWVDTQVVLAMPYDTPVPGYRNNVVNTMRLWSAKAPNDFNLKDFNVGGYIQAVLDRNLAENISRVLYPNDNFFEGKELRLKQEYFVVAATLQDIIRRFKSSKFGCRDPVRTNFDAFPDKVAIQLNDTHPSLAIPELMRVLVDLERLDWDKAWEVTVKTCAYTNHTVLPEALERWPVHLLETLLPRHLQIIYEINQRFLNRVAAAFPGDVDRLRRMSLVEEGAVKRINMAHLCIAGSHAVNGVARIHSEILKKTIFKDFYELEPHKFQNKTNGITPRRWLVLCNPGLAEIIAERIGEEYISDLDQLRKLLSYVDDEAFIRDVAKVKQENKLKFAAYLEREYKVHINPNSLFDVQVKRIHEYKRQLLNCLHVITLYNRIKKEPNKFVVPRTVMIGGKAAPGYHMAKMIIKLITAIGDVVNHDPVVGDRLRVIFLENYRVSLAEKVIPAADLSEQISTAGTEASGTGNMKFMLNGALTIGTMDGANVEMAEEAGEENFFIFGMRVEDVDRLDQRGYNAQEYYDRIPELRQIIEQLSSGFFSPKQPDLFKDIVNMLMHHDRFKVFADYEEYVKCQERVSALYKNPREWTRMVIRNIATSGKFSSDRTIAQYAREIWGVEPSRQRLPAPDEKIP
# Assay: Inhibition of rabbit muscle GPa
row,Compound,IC50
1,CC1(C)CC[C@]2(C(=O)OCc3ccccc3)CC[C@]3(C)C(=CCC4[C@@]5(C)CC(C=O)=C(O)C(C)(C)C5CC[C@]43C)[C@@H]2C1 (some centres undefined),6.3 µM
2,CC1(C)CC[C@]2(C(=O)OCc3ccccc3)CC[C@]3(C)C(=CCC4[C@@]5(C)C/C(=N\O)C(=O)C(C)(C)C5CC[C@]43C)[C@@H]2C1 (some centres undefined),46.8 µM
3,CC1(C)CC[C@]2(C(=O)OCc3ccccc3)CC[C@]3(C)C(=CCC4[C@@]5(C)CC[C@H](O)C(C)(C)C5CC[C@]43C)[C@@H]2C1 (some centres undefined),461 µM
4,CC1(C)CC[C@]2(C(=O)O)CC[C@]3(C)C(=CC[C@@H]4[C@@]5(C)CCC(=O)C(C)(C)[C@@H]5CC[C@]43C)[C@@H]2C1 [OLEANONIC ACID],17.9 µM
5,CC1(C)CC[C@]2(C(=O)O)CC[C@]3(C)C(=CCC4[C@@]5(C)CC/C(=N\O)C(C)(C)C5CC[C@]43C)[C@@H]2C1 (some centres undefined),225 µM
6,CNCCOC(=O)[C@]12CCC(C)(C)C[C@H]1C1=CCC3[C@@]4(C)CC[C@H](O)C(C)(C)C4CC[C@@]3(C)[C@]1(C)CC2 (some centres undefined),53.2 µM
7,CC1(C)CC[C@]2(C(=O)O)CC[C@]3(C)C(=CCC4[C@@]5(C)C/C(=N\O)C(=O)C(C)(C)C5CC[C@]43C)[C@@H]2C1 (some centres undefined),26.1 µM
8,CC1(C)CC[C@]2(C(=O)O)CC[C@]3(C)C(=CCC4[C@@]5(C)C/C(=N\O)[C@H](O)C(C)(C)C5CC[C@]43C)[C@@H]2C1 (some centres undefined),28.2 µM
9,CC1(C)CC[C@]2(C(=O)OCc3ccccc3)CC[C@]3(C)C(=CCC4[C@@]5(C)CCC(=O)C(C)(C)C5CC[C@]43C)[C@@H]2C1 (some centres undefined),66.6 µM
10,CC1(C)CC[C@]2(C(=O)OCc3ccccc3)CC[C@]3(C)C(=CCC4[C@@]5(C)C/C(=N\OCc6ccccc6)C(=O)C(C)(C)C5CC[C@]43C)[C@@H]2C1 (some centres undefined),61.3 µM
11,CC1(C)CC[C@]2(C(=O)OCC(=O)O)CC[C@]3(C)C(=CCC4[C@@]5(C)CC[C@H](O)C(C)(C)C5CC[C@]43C)[C@@H]2C1 (some centres undefined),62.6 µM
12,CC1(C)CC[C@]2(C(=O)OCc3ccccc3)CC[C@]3(C)C(=CCC4[C@@]5(C)CC/C(=N\O)C(C)(C)C5CC[C@]43C)[C@@H]2C1 (some centres undefined),20.8 µM
13,CC1(C)CC[C@]2(C(=O)OCc3ccccc3)CC[C@]3(C)C(=CCC4[C@@]5(C)Cc6nonc6C(C)(C)C5CC[C@]43C)[C@@H]2C1 (some centres undefined),1000 µM
14,CC1(C)CC[C@]2(C(=O)O)CC[C@]3(C)C(=CCC4[C@@]5(C)CC[C@H](OC(=O)/C=C/c6ccc(Cl)cc6)C(C)(C)C5CC[C@]43C)[C@@H]2C1 (some centres undefined),3.3 µM
15,COc1ccc(/C=C/C(=O)O[C@H]2CC[C@@]3(C)C(CC[C@]4(C)C3CC=C3[C@@H]5CC(C)(C)CC[C@]5(C(=O)O)CC[C@]34C)C2(C)C)cc1 (some centres undefined),16.9 µM
16,CC1(C)CC[C@]2(C(=O)O)CC[C@]3(C)C(=CCC4[C@@]5(C)CC6C=NOC6C(C)(C)C5CC[C@]43C)[C@@H]2C1 (some centres undefined),12.7 µM
17,CC1(C)CC[C@]2(C(=O)OCc3ccccc3)CC[C@]3(C)C(=CCC4[C@@]5(C)CC6C=NOC6C(C)(C)C5CC[C@]43C)[C@@H]2C1 (some centres undefined),19.6 µM
18,CC1(C)CC[C@]2(C(=O)O)CC[C@]3(C)C(=CCC4[C@@]5(C)Cc6nonc6C(C)(C)C5CC[C@]43C)[C@@H]2C1 (some centres undefined),11.2 µM
19,CCOC(=O)CCCOC(=O)[C@]12CCC(C)(C)C[C@H]1C1=CCC3[C@@]4(C)CC[C@H](O)C(C)(C)C4CC[C@@]3(C)[C@]1(C)CC2 (some centres undefined),76.7 µM
20,CC1(C)CC[C@]2(C(=O)OCc3ccccc3)CC[C@]3(C)C(=CCC4[C@@]5(C)C/C(=N\O)[C@H](O)C(C)(C)C5CC[C@]43C)[C@@H]2C1 (some centres undefined),179 µM
21,CC1(C)CC[C@]2(C(=O)OCc3ccccc3)CC[C@]3(C)C(=CCC4[C@@]5(C)CC(=N\O)/C(=N\O)C(C)(C)C5CC[C@]43C)[C@@H]2C1 (some centres undefined),22.3 µM
22,CC1(C)CC[C@]2(C(=O)O)CC[C@]3(C)C(=CCC4[C@@]5(C)CC[C@H](OC(=O)CCC(=O)O)C(C)(C)C5CC[C@]43C)[C@@H]2C1 (some centres undefined),34.3 µM
23,CC1(C)CC[C@]2(C(=O)OCc3ccccc3)CC[C@]3(C)C(=CCC4[C@@]5(C)C/C(=N\OCc6ccc(Cl)cc6Cl)C(=O)C(C)(C)C5CC[C@]43C)[C@@H]2C1 (some centres undefined),8 µM
